Tests used:
[1] = BTK FAC plasma stability assay, rat plasma; assay type: in vitro ADME; conditions: incubation to 24 h
How it was run: (§1)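 Compound from a 500 µM acetonitrile:water working solution was spiked into K3-EDTA plasma or Dulbecco's PBS and incubated with shaking at 38 °C. Samples taken at 0, 2, 6 and 24 h were precipitated with cold acetonitrile containing glyburide internal standard. Semi-quantitative LC-MS/MS used analyte:internal standard peak area ratios.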

BTK C481S = molecular target: T1, BTK C481S (Homo sapiens, UniProt Q06187, C481S); assay: PD screen in TMD8 BTK C481S mutant tumor-bearing mice, BTK levels and compound concentrations in blood and tumor; assay type: in vivo, mouse; conditions: 20 mgL/kg (unconjugated V)
T1 construct: endogenous in cells; host or cells: TMD8 BTK C481S mutant tumour xenografts in mice
T1 sequence (Q06187 whole entry C481S): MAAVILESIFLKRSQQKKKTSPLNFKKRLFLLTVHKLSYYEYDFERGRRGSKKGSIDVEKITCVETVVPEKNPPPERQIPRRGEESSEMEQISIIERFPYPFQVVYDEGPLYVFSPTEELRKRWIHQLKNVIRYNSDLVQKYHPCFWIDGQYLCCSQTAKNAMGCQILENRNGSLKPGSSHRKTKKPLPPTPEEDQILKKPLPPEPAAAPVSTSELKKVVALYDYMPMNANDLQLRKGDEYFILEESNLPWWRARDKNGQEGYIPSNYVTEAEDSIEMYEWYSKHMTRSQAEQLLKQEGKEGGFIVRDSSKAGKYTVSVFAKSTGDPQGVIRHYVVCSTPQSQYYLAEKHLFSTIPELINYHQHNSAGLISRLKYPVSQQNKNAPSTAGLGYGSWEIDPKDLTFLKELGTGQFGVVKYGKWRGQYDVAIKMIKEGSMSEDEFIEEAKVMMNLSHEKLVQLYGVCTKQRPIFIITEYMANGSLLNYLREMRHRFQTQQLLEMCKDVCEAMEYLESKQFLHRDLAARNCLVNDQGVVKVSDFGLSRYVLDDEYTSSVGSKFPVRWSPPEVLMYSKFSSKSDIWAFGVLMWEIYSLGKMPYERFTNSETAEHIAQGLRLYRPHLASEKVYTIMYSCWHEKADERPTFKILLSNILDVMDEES
How it was run: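 Single compound injection in mice bearing TMD8 BTK C481S tumors, groups of 2, with blood and tumor sampled at day 0, 4, 7 and sometimes 10. Compound levels measured by UPLC/MS-MS and BTK levels by Meso Scale Discovery.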

[2] = BTK FAC plasma stability assay, PBS buffer arm; assay type: physicochemical; conditions: incubation to 24 h
How it was run: as §1

[3] = BTK FAC plasma stability assay, dog plasma; assay type: in vitro ADME

COc1ccc(C(=O)N2CCC3(CCN(CCc4ccc(-c5cc6c(-c7cc(F)cc(NC(=O)c8ccc(C(C)(C)O)cc8F)c7C)ncnc6[nH]5)cc4)CC3)CC2)cc1N1CCC(=O)NC1=O [Compound V, N-(3-(6-(4-(2-(9-(3-(2,4-Dioxotetrahydropyrimidin-1(2H)-yl)-4-methoxybenzoyl)-3,9-diazaspiro[5.5]undecan-3-yl)ethyl)phenyl)-7H-pyrrolo[2,3-d]pyrimidin-4-yl)-5-fluoro-2-methylphenyl)-2-fluoro-4-(2-hydroxypropan-2-yl)benzamide]
Plasma stability (h) rat [1]: 39.3 h | Duration of BTK degradation in mouse ≥90% (BTK C481S; i.v.): <4 days | Duration of BTK degradation in mouse ≥90% (days) (BTK C481S; s.c.): Not tolerated | Plasma stability (h) PBS [2]: >48 h | Plasma stability (h) dog [3]: >48 h
